Test results reported in patent US9421194B2, “Lung targeting dual drug delivery system” (priority 2010, dated 2016).

Assays:
[1] = system: A549 cell orthotopic lung cancer; assay: Anti-cancer efficacy in orthotopic rat lung cancer model; type: in vivo, nude rats; conditions: 2 mg/kg IV every 3 days for 27 days; p<0.05
Experimental: PEGylated 6 μm polystyrene MPs with three copies of the norvaline (Nva) α-amino acid prodrug of CPT were prepared. […] The treatment was conducted every 3 days for 27 days. The day after the last treatment, all animals were euthanized, and organs (lung, heart, […], spleen and […]) were dissected and weighed. The organs were fixed in 10% neutral buffered formalin for H&E staining. […] See references 74 and 86, which are incorporated herein by reference as if fully set forth.

[2] = Systemic (plasma) concentration of CPT after single bolus IV injection; type: in vivo, rats; conditions: free CPT IV, 2 mg/kg
Experimental: FIG. 9 illustrates systemic (plasma) concentration of camptothecin (CPT) as a function of time after a single bolus IV injection of CPT-Nva-MPs (CPT dose=0.2 mg/kg) (squares) and free CPT (2 mg/kg) (triangles). Values are reported as mean±SD. The lower limit of quantitation was 0.1 ng/mL.
PEGylated 6 μm polystyrene MPs with three copies of the norvaline (Nva) α-amino acid prodrug of CPT were prepared. […] Referring to FIG. 10, anti-cancer efficacy was evaluated in an orthotopic rat lung cancer model and compared to a bolus injection of CPT. One week after A549 cell inoculation, nude rats were injected IV with CPT-Nva-MPs (50 and 100 mg/kg equivalent to CPT at 0.11 mg/kg and 0.22 mg/kg), free CPT (2 mg/kg) or vehicle control (saline containing 0.1% Tween 80). The treatment was conducted every 3 days for 27 days. The day after the last treatment, all animals were euthanized, and organs (lung, heart, […], spleen and […]) were dissected and weighed. The organs were fixed in 10% neutral buffered formalin for H&E staining. […] In addition, 40% of the animals receiving CPT-Nva-MPs (0.22 mg/kg) were free of cancer. […] See references 74 and 86, which are incorporated herein by reference as if fully set forth.

## CC[C@@]1(O)C(=O)OCc2c1cc1n(c2=O)Cc2cc3ccccc3nc2-1 [free CPT, camptothecin]
[1]
  area of lung cancer versus untreated animals: smaller areas of lung cancer
[2]
  systemic CPT exposure (in words): high but short-lived systemic exposures
